Results: patent US8871753B2, “Macrocyclic compounds and their use as kinase inhibitors” (Incyte Corporation, priority 2008, dated 2014)
Where a name gives a salt, the structure may show the parent alone. Read-outs that look alike come from different tables or passages of the source.

Columns and labels:
Format in all cases: biochemical
[1] = molecular target: T1, human JAK1 (a.a. 837-1142) (Homo sapiens, UniProt P23458); assay: In vitro JAK kinase assay (HTRF, phosphorylation of a biotinylated peptide), JAK1; conditions: read-out: JAK1 IC50
T1 construct: human JAK1 (a.a. 837-1142); His tag (N); made in house; host or cells: insect cells (baculovirus)
In short: (§1)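 Kinase activity was measured as phosphorylation of a biotinylated peptide, with ATP at 90 μM for JAK1, 30 μM for JAK2 and 3 μM for JAK3. Reactions ran 1 hr at room temperature, were stopped with EDTA plus SA-APC and Eu-Py20, and were read by HTRF after 40 minutes of antibody binding.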

[2] = molecular target: T2, human JAK2 (a.a. 828-1132) (Homo sapiens, UniProt O60674); assay: In vitro JAK kinase assay (HTRF, phosphorylation of a biotinylated peptide), JAK2
T2 construct: JAK2 (a.a. 828-1132); His tag (N); made in house; host or cells: insect cells (baculovirus)
In short: as §1

[3] = molecular target: T3, human JAK3 (a.a. 781-1124) (Homo sapiens, UniProt P52333); assay: In vitro JAK kinase assay (HTRF, phosphorylation of a biotinylated peptide), JAK3
T3 construct: JAK3 (a.a. 781-1124); His tag (N); made in house; host or cells: insect cells (baculovirus)
In short: as §1

TYK2 = TYK2 (Homo sapiens, UniProt P29597); assay: TYK2 kinase inhibition (Table A1)
[4] = molecular target: T4, Recombinant Human Anaplastic Lymphoma Kinase (Homo sapiens, UniProt Q9UM73); assay: ALK HTRF kinase assay; conditions: for ALK % of inhibition at a concentration of 500 nM or 1 mM: percentage inhibition of the example compound at a concentration of 500 nM or 1 mM (not specified which)
T4 construct: purchased Invitrogen, Carlsbad, Calif
In short: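 Recombinant human ALK with biotinylated peptide substrate; phosphorylation detected by HTRF using Eu-labelled anti-phosphotyrosine antibody and streptavidin-allophycocyanin. IC50 from a sigmoidal fit with Hill slope.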

T4 sequence (Q9UM73 19-1620): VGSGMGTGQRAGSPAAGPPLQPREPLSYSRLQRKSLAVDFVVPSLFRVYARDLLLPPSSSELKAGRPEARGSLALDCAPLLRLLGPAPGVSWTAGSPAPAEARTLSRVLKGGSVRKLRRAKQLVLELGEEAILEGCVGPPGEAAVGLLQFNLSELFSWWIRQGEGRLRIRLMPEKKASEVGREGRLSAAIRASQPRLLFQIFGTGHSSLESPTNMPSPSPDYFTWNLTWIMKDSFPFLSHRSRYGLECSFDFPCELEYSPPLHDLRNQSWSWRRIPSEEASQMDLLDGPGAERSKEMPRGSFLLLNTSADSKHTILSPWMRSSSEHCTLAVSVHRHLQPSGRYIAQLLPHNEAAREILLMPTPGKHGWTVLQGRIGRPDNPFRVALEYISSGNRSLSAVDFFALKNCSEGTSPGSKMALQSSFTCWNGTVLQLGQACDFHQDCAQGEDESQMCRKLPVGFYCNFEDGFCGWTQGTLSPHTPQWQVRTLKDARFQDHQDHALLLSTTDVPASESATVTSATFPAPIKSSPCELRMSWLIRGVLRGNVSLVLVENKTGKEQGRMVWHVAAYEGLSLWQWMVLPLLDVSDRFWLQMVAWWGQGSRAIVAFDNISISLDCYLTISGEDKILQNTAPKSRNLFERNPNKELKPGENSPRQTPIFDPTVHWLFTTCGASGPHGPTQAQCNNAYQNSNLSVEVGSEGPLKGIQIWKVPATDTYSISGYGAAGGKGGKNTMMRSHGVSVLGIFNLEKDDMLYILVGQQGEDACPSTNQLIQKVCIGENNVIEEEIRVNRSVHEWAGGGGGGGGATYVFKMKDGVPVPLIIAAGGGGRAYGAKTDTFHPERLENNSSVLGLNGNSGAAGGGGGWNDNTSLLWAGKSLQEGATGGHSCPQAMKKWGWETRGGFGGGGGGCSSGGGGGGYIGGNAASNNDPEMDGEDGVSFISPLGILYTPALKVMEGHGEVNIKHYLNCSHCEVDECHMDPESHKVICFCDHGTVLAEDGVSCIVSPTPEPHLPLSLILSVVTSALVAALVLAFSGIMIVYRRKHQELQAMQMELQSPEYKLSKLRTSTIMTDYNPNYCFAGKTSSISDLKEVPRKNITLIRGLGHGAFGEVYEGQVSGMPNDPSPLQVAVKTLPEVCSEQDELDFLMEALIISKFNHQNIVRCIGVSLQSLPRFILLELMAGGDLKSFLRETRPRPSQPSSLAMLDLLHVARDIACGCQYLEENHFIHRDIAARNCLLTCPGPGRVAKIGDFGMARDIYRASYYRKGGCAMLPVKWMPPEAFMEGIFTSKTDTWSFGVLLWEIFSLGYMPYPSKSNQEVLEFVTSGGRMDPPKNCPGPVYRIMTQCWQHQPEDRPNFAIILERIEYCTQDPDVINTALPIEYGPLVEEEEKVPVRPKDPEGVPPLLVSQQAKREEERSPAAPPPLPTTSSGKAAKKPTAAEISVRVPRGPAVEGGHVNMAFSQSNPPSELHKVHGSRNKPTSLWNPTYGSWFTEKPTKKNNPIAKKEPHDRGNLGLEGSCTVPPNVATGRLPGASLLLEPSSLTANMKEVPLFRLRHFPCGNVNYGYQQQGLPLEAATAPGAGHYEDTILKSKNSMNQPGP
T3 sequence (P52333 781-1124): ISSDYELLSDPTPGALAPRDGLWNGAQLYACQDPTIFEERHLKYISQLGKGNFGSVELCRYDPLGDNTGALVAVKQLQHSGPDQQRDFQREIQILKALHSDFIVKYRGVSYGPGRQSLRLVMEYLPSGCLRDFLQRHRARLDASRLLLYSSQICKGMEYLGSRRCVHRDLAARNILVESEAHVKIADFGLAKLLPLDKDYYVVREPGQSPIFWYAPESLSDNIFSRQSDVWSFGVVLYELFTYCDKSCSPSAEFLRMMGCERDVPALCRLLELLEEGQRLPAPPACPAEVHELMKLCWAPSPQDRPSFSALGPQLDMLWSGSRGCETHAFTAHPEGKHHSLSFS
T2 sequence (O60674 828-1132): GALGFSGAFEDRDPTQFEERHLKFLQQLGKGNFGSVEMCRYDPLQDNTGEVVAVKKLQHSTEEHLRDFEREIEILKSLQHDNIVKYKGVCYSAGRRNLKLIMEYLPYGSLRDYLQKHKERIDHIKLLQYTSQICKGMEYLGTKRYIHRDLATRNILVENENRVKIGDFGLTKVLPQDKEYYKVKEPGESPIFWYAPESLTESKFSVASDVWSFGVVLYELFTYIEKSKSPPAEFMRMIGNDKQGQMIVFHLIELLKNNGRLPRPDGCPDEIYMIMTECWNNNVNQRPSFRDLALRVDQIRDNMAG
TYK2, sequence (P29597 whole entry): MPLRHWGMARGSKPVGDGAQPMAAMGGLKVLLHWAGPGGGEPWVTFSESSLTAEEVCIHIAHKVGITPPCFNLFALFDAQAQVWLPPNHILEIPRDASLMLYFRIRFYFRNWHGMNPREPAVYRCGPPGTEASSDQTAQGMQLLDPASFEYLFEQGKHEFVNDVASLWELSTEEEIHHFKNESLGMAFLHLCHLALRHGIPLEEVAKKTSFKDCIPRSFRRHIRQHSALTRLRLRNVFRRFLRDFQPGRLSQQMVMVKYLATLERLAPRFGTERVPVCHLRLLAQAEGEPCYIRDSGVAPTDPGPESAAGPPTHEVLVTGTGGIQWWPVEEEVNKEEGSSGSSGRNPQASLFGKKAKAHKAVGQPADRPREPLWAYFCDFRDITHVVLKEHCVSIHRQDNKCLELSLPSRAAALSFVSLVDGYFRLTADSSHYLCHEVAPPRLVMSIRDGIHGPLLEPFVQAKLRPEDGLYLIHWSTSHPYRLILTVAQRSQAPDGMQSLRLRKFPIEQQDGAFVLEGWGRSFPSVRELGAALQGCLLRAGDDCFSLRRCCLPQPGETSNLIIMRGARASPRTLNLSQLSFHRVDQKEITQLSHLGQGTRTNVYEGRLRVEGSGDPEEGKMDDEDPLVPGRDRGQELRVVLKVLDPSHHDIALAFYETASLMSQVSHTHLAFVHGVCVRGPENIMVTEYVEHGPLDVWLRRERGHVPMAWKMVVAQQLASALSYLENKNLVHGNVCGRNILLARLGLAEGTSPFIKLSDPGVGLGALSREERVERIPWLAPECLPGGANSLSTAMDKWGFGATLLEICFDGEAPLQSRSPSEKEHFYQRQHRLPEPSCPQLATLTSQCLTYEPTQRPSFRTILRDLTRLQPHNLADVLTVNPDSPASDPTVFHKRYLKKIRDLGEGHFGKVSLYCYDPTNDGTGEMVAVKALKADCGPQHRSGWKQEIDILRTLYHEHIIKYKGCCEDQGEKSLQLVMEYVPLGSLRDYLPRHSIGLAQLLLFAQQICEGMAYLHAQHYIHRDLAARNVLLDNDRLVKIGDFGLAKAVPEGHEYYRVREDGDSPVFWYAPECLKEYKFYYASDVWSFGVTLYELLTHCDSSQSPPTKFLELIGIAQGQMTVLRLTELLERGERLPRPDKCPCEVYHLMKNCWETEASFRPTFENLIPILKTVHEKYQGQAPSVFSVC
T1 sequence (P23458 849-1154): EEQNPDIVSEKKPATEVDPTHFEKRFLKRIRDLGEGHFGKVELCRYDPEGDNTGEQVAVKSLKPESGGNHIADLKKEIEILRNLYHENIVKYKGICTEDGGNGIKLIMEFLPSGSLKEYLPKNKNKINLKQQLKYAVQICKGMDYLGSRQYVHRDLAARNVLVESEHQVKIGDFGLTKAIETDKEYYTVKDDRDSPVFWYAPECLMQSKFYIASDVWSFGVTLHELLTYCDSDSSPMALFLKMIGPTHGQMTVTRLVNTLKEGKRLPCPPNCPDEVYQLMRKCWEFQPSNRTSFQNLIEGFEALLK

IC50 [1] [nM]	IC50 [2] [nM]	IC50 [3] [nM]	IC50 (TYK2) [nM]	IC50 [4] [nM]	SMILES	also measured
–	–	–	–	–	CC(=O)N1CCC(CN(C)Cc2ccc3cc2CCc2cncc(c2)Nc2ncc(Cl)c(n2)N3)CC1 [Example B346, 1-(1-Acetylpiperidin-4-yl)-N-{[6-chloro-2,4,8,18,22-pentaazatetracyclo[14.3.1.1(3,7).1(9,13)]docosa-1(20),3(22),4,6,9(21),10,12,16,18-nonaen-12-yl]methyl}-N-methylmethanamine tris(trifluoroacetate)]	IC50 ([1]; Table B1): 13 nM; IC50 ([2]; Table B1): 91 nM; IC50 ([3]; Table B1): > 400 nM; IC50 (TYK2; Table B1): > 400 nM; ALK % of inhibition at a concentration of 500 nM or 1 mM [4]: 38%
–	–	–	–	–	Cc1ncoc1C(=O)N1CCC(CN(C)Cc2ccc3cc2CCc2cncc(c2)Nc2ncc(Cl)c(n2)N3)CC1 [Example B347, 1-[6-Chloro-2,4,8,18,22-pentaazatetracyclo[14.3.1.1(3,7).1(9,13)]docosa-1(20),3(22),4,6,9(21),10,12,16,18-nonaen-12-yl]-N-methyl-N-({1-[(4-methyl-1,3-oxazol-5-yl)carbonyl]piperidin-4-yl}methyl)methanamine tris(trifluoroacetate)]	IC50 ([1]; Table B1): 58 nM; IC50 ([2]; Table B1): 371 nM; IC50 ([3]; Table B1): > 400 nM; IC50 (TYK2; Table B1): > 400 nM; ALK % of inhibition at a concentration of 500 nM or 1 mM [4]: 45%
–	–	–	–	–	CN(Cc1ccc2cc1CCc1cncc(c1)Nc1ncc(Cl)c(n1)N2)CC1CCN(C(=O)Nc2cccnc2)CC1 [Example B348, 4-{[{[6-Chloro-2,4,8,18,22-pentaazatetracyclo[14.3.1.1(3,7).1(9,13)]docosa-1(20),3(22),4,6,9(21),10,12,16,18-nonaen-12-yl]methyl}(methyl)amino]methyl}-N-pyridin-3-ylpiperidine-1-carboxamide tetrakis(trifluoroacetate)]	IC50 ([1]; Table B1): 3.4 nM; IC50 ([2]; Table B1): 45 nM; IC50 ([3]; Table B1): > 400 nM; IC50 (TYK2; Table B1): > 400 nM; ALK % of inhibition at a concentration of 500 nM or 1 mM [4]: 47%
–	–	–	–	–	Cc1occc1NC(=O)N1CCC(CN(C)Cc2ccc3cc2CCc2cncc(c2)Nc2ncc(Cl)c(n2)N3)CC1 [Example B349, 4-{[{[6-Chloro-2,4,8,18,22-pentaazatetracyclo[14.3.1.1(3,7).1(9,13)]docosa-1(20),3(22),4,6,9(21),10,12,16,18-nonaen-12-yl]methyl}(methyl)amino]methyl}-N-(2-methyl-3-furyl)piperidine-1-carboxamide tris(trifluoroacetate)]	IC50 ([1]; Table B1): 11 nM; IC50 ([2]; Table B1): 150 nM; IC50 ([3]; Table B1): 371 nM; IC50 (TYK2; Table B1): 300 nM; ALK % of inhibition at a concentration of 500 nM or 1 mM [4]: 61%
–	–	–	–	–	Clc1cnc2nc1Nc1ccc(-c3cn[nH]c3)c(c1)CCc1cncc(c1)N2 [Example B350, 6-Chloro-12-(1H-pyrazol-4-yl)-2,4,8,18,22-pentaazatetracyclo[14.3.1.1(3,7).1(9,13)]docosa-1(20),3(22),4,6,9(21),10,12,16,18-nonaene tris(trifluoroacetate)]	IC50 ([1]; Table B1): 90 nM; IC50 ([2]; Table B1): 66 nM; IC50 ([3]; Table B1): > 400 nM; IC50 (TYK2; Table B1): 244 nM; ALK % of inhibition at a concentration of 500 nM or 1 mM [4]: 58%
> 1000	900	> 1000	> 1000	> 10000	O=C1Nc2cccc(c2)Nc2ncc(Cl)c(n2)Nc2cccc1c2 [Example C1, 6-Chloro-2,4,8,15,22-pentaazatetracyclo[14.3.1.1(3,7).1(9,13)]docosa-1(20),3(22),4,6,9(21),10,12,16,18-nonaen-14-one hydrochloride]	–
> 1000	> 1000	> 1000	> 1000	> 1000	O=C1Nc2cccc(c2)Nc2nc(ncc2Cl)Nc2cccc1c2 [Example C2, 6-Chloro-2,4,8,14,22-pentaazatetracyclo[14.3.1.1(3,7).1(9,13)]docosa-1(20),3(22),4,6,9(21),10,12,16,18-nonaen-15-one hydrochloride]	–
81	37	115	91	6600	O=S1(=O)NCc2cccc(c2)Nc2nc(ncc2Cl)Nc2cccc1c2 [Example C3, 6-Chloro-16-thia-2,4,8,15,23-pentaazatetracyclo[15.3.1.1(3,7).1(9,13)]tricosa-1(21),3(23),4,6,9(22),10,12,17,19-nonaene 16,16-dioxide]	–
361	350	317	> 1000	> 1000	O=C1NCc2cccc(c2)Nc2ncc(Cl)c(n2)Nc2cccc1c2 [Example C4, 6-Chloro-2,4,8,15,23-pentaazatetracyclo[15.3.1.1(3,7).1(9,13)]tricosa-1(21),3(23),4,6,9(22),10,12,17,19-nonaen-14-one]	–
> 1000	> 1000	> 1000	> 1000	> 1000	O=C1NCc2cccc(c2)Nc2nc(ncc2Cl)Nc2cccc1c2 [Example C5, 6-Chloro-2,4,8,15,23-pentaazatetracyclo[15.3.1.1(3,7).1(9,13)]tricosa-1(21),3(23),4,6,9(22),10,12,17,19-nonaen-16-one hydrochloride]	–
220	70	377	240	> 10000	O=S1(=O)Nc2cccc(c2)Nc2nc(ncc2Cl)Nc2cccc1c2 [Example C6, 6-Chloro-15-thia-2,4,8,14,22-pentaazatetracyclo[14.3.1.1(3,7).1(9,13)]docosa-1(20),3(22),4,6,9(21),10,12,16,18-nonaene 15,15-dioxide trifluoroacetate]	–
63	36	82	32	1900	O=S1(=O)Nc2cccc(c2)Nc2ncc(Cl)c(n2)Nc2cccc1c2 [Example C7, 6-Chloro-14-thia-2,4,8,15,22-pentaazatetracyclo[14.3.1.1(3,7).1(9,13)]docosa-1(20),3(22),4,6,9(21),10,12,16,18-nonaene 14,14-dioxide trifluoroacetate]	–
144	93	412	353	> 1000	O=S1(=O)Cc2cccc(c2)Nc2ncc(Cl)c(n2)Nc2cccc(c2)N1 [Example C9, 6-Chloro-15-thia-2,4,8,14,23-pentaazatetracyclo[15.3.1.1(3,7).1(9,13)]tricosa-1(21),3(23),4,6,9(22),10,12,17,19-nonaene 15,15-dioxide trifluoroacetate]	–
154	303	> 1000	60	> 10000	O=C1Cc2cccc(c2)Nc2ncc(Cl)c(n2)Nc2cccc(c2)N1 [Example C10, 6-Chloro-2,4,8,14,23-pentaazatetracyclo[15.3.1.1(3,7).1(9,13)]tricosa-1(21),3(23),4,6,9(22),10,12,17,19-nonaen-15-one trifluoroacetate]	–
> 1000	> 1000	> 1000	> 1000	> 10000	O=C1Cc2cccc(c2)Nc2nc(ncc2Cl)Nc2cccc(c2)N1 [Example C11, 6-Chloro-2,4,8,16,23-pentaazatetracyclo[15.3.1.1(3,7).1(9,13)]tricosa-1(21),3(23),4,6,9(22),10,12,17,19-nonaen-15-one trifluoroacetate]	–
–	–	–	–	–	Clc1cnc2nc1Nc1cccc(c1)SCc1cccc(c1)N2 [Example D1, 6-Chloro-14-thia-2,4,8,22-tetraazatetracyclo[14.3.1.1(3,7).1(9,13)]docosa-1(20),3(22),4,6,9(21),10,12,16,18-nonaene trifluoroacetate]	IC50 ([1]; Table D1): 13 nM; IC50 ([2]; Table D1): 9.6 nM; IC50 ([3]; Table D1): 16 nM; IC50 (TYK2; Table D1): 14 nM; IC50 ([4]; Table D1, 90 μM ATP): 620 nM
–	–	–	–	–	Clc1cnc2nc1Nc1cccc(c1)CSc1cccc(c1)N2 [Example D2, 6-Chloro-15-thia-2,4,8,22-tetraazatetracyclo[14.3.1.1(3,7).1(9,13)]docosa-1(20),3(22),4,6,9(21),10,12,16,18-nonaene trifluoroacetate]	IC50 ([1]; Table D1): 19 nM; IC50 ([2]; Table D1): 7.3 nM; IC50 ([3]; Table D1): 13 nM; IC50 (TYK2; Table D1): 25 nM; IC50 ([4]; Table D1, 90 μM ATP): 774 nM
–	–	–	–	–	[O-][S+]1Cc2cccc(c2)Nc2nc(ncc2Cl)Nc2cccc1c2 (stereo not shown) [Example D3, 6-Chloro-15-thia-2,4,8,22-tetraazatetracyclo[14.3.1.1(3,7).1(9,13)]docosa-1(20),3(22),4,6,9(21),10,12,16,18-nonaene 15-oxide trifluoroacetate]	IC50 ([1]; Table D1): 25 nM; IC50 ([2]; Table D1): 6.3 nM; IC50 ([3]; Table D1): 13 nM; IC50 (TYK2; Table D1): 40 nM; IC50 ([4]; Table D1, 90 μM ATP): 1110 nM
–	–	–	–	–	O=S1(=O)Cc2cccc(c2)Nc2nc(ncc2Cl)Nc2cccc1c2 [Example D4, 6-Chloro-15-thia-2,4,8,22-tetraazatetracyclo[14.3.1.1(3,7).1(9,13)]docosa-1(20),3(22),4,6,9(21),10,12,16,18-nonaene 15,15-dioxide trifluoroacetate]	IC50 ([1]; Table D1): 91 nM; IC50 ([2]; Table D1): 16 nM; IC50 ([3]; Table D1): 25 nM; IC50 (TYK2; Table D1): 50 nM; IC50 ([4]; Table D1, 90 μM ATP): 774 nM
–	–	–	–	–	Clc1cnc2nc1Nc1cccc(c1)COc1cccc(c1)N2 [Example D6, 6-Chloro-15-oxa-2,4,8,22-tetraazatetracyclo[14.3.1.1(3,7).1(9,13)]docosa-1(20),3(22),4,6,9(21),10,12,16,18-nonaene trifluoroacetate]	IC50 ([1]; Table D1): 36 nM; IC50 ([2]; Table D1): 37 nM; IC50 ([3]; Table D1): > 100 nM; IC50 (TYK2; Table D1): 16 nM; IC50 ([4]; Table D1, 90 μM ATP): 4190 nM
